Results: paper PMC3277506, “Extra-Renal Elimination of Uric Acid via Intestinal Efflux Transporter BCRP/ABCG2” (PLoS ONE, 2012)

Experiment: Plasma uric acid, intestinal and renal clearance in oxonate-treated wild-type and Bcrp1 knockout mice
Type: in vivo
Details: for Intestinal secretory clearance of endogenous uric acid / Renal clearance of endogenous uric acid: oxonate-treated; for Intestinal secretory clearance of endogenous uric acid: ileum closed loop; for Renal clearance of endogenous uric acid: metabolic cages
Description: Male Wistar rats (280±30 g body weight) used in the present study were treated with potassium oxonate, a uric acid oxidase (uricase) inhibitor. Oxonate-treated rats were established as described previously, [48]. Briefly, rats were anesthetized with 50% urethane (2 mL/kg) and infused with 0.9% NaCl, 0.5% oxonate and 4% mannitol solution from the femoral vein at the flow rate of 3 mL/hr. As a bolus, 0.9% NaCl, 1.5% oxonate and 4% mannitol solution was administered from the jugular vein at 6 mL/kg. After equilibration for 80 min, blood, urine and bile samples were collected at 20-min intervals. When [^14C]uric acid (2 µCi/rat) was used, it was intravenously injected from the jugular vein after oxonate treatment for 80 min. In order to suppress the uricolysis of [^14C]uric acid by intestinal flora, animals received orally non-absorbed antibiotics, polymyxin B, kanamycin, and vancomycin at daily doses of 50, 50 and 20 mg/kg, respectively, for 7 days before this animal study. Urine and bile were collected at 20-min intervals, and blood samples were drawn at 1, 5, 10, 20, 40, 60, 80, 100 and 120 min. Urine and bile were collected from bladder and bile ducts, respectively, and blood from the jugular vein. In mice, urine was collected for 24 hours by using metabolic cages (Natsume, Tokyo, Japan).
Mice were treated with oxonate (intraperitoneal injection of 200 mg/kg oxonate in 1% arabic gum solution) at 1 hr before injection of PB solution into the intestinal loop. Blood was withdrawn from the jugular vein at 1, 30 and 60 min. At 60 min, the intestinal luminal content was collected for measurement of intestinally secreted uric acid.
The following equation was used to calculate intestinal secretory clearance (µL/min/cm loop) and estimated total intestinal secretory clearance (CLintestine, estimated) (mL/min): [drawing 1] [drawing 2] [drawing 3] where A is the amount of uric acid secreted into the intestinal lumen of each loop for 60 min, L is the length of the intestine, and AUC is area under the plasma concentration-time curve.

Intestinal secretory clearance of endogenous uric acid (Bcrp1−/− mice): 0.61 ± 0.08 µL/min/cm
Renal clearance of endogenous uric acid (Bcrp1−/− mice): 16.0 ± 1.77 µL/min
Plasma uric acid level in Bcrp1−/− mice compared with wild-type mice (after oxonate treatment): much higher
Intestinal secretory clearance of endogenous uric acid (wild-type mice): 1.04 ± 0.11 µL/min/cm
Renal clearance of endogenous uric acid (wild-type mice): 23.5 ± 1.42 µL/min
SMILES: O=c1[nH]c(=O)c2[nH]c(=O)[nH]c2[nH]1 [uric acid]
